Reference: ChEMBL document CHEMBL1201862, “PubChem BioAssay data set” (2004)
Active and inactive are the calls of the source.

Experiments:
[1] = molecular target: Protein disulfide-isomerase (Homo sapiens, UniProt P07237); assay: PDI inhibitors, insulin aggregation turbidity, dose response, biochemical, absorbance, cherry-picked samples (AID 602350); assay type: functional
Aurora kinase A = Aurora kinase A (Homo sapiens, UniProt O14965); assay type: functional;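 note: value from the Navigating the Kinome kinase panel profiling, panel entry STK6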
[2] = molecular target: Vascular endothelial growth factor receptor 2 (Homo sapiens, UniProt P35968); assay type: functional
Aurora kinase B = Aurora kinase B (Homo sapiens, UniProt Q96GD4); assay type: functional
[3] = molecular target: T1, Melanin-concentrating hormone receptor 1 (Homo sapiens, UniProt Q99705); assay: Late-stage fluorescence-based counterscreen for antagonists of the G-protein coupled receptor 7 (GPR7): cell-based dose response assay to identify antagonists of the melanin-concentrating hormone receptor 1 (MCHR1) Set 5.; assay type: functional
T1 sequence (Q99705 whole entry): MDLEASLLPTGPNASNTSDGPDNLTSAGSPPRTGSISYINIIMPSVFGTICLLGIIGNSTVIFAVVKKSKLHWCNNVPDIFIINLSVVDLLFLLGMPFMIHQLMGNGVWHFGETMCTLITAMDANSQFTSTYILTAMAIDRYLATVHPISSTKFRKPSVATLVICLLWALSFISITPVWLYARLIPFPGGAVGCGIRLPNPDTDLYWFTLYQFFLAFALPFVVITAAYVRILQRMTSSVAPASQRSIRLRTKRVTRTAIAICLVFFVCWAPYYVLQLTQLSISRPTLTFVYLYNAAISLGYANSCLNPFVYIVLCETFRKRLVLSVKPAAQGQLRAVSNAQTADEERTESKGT

[4] = molecular target: Dual specificity protein kinase CLK2 (Homo sapiens, UniProt P49760); assay type: functional
[5] = molecular target: Serine/threonine-protein kinase pim-1 (Homo sapiens, UniProt P11309); assay type: functional
[6] = molecular target: Dual specificity protein kinase CLK4 (Homo sapiens, UniProt Q9HAZ1); assay type: functional
[7] = molecular target: T1, Melanin-concentrating hormone receptor 1; assay: Late-stage fluorescence-based counterscreen for antagonists of the G-protein coupled receptor 7 (GPR7): cell-based dose response assay to identify antagonists of the melanin-concentrating hormone receptor 1 (MCHR1) Set 6.; assay type: functional
[8] = molecular target: Neuropeptides B/W receptor type 1 (Homo sapiens, UniProt P48145); assay: GPR7 antagonist potency, late-stage follow-up, cell-based, fluorescence, dose response, set 6 (AID 588583); assay type: functional
Neuropeptides B/W receptor type 1, sequence (P48145 whole entry): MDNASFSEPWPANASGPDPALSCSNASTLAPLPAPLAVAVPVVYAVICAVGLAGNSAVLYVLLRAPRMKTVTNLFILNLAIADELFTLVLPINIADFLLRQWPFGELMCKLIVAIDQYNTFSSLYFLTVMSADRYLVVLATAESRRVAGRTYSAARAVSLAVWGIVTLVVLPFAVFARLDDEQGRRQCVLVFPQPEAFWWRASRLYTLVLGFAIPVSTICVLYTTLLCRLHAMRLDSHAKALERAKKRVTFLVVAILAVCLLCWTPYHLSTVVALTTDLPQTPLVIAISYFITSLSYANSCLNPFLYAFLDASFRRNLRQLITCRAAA

Activin receptor type-1 = Activin receptor type-1 (Homo sapiens, UniProt Q04771); assay: Navigating the Kinome. Panel member name: ACVR1; assay type: functional
Activin receptor type-1, sequence (Q04771 whole entry): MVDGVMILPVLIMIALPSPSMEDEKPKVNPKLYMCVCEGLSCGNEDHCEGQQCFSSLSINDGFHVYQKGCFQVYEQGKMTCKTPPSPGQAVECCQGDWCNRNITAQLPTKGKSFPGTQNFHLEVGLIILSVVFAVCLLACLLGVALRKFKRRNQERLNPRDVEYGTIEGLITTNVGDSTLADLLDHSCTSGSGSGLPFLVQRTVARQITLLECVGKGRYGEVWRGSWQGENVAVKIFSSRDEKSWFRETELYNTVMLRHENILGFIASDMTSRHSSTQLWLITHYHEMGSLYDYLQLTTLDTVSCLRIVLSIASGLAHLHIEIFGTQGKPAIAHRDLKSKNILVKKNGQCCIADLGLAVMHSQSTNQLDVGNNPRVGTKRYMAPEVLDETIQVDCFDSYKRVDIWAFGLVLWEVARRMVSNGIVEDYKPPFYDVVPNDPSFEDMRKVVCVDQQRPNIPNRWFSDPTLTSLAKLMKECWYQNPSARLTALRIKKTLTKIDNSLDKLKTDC

[9] = molecular target: Glycogen synthase kinase-3 alpha (Homo sapiens, UniProt P49840); assay type: functional;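 note: GSK3A result taken from a broad kinome-wide kinase panel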
[10] = molecular target: Receptor-type tyrosine-protein kinase FLT3 (Homo sapiens, UniProt P36888); assay type: functional;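 note: FLT3 was tested as one member of a kinome-wide kinase panel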
[11] = molecular target: T2, Glycogen synthase kinase-3 beta (Homo sapiens, UniProt P49841); assay type: functional;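 note: value comes from a broad kinome profiling panel, with GSK3B as the panel member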
T2 sequence (P49841 whole entry): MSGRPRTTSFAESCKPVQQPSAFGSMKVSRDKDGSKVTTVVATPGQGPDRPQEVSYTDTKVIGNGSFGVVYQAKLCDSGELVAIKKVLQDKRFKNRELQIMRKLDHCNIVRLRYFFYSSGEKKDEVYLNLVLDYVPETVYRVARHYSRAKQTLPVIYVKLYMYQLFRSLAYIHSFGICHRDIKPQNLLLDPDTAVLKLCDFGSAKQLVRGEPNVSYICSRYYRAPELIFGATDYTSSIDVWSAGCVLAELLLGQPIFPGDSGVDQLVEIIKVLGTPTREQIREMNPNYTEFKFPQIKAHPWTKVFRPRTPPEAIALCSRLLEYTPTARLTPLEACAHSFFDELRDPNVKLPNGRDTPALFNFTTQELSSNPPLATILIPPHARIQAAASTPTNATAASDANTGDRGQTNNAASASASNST

[12] = molecular target: ALK tyrosine kinase receptor (Homo sapiens, UniProt Q9UM73); assay type: functional;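 note: ALK tested as one member of a kinase panel screen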
[13] = molecular target: Cyclin-dependent kinase 19 (Homo sapiens, UniProt Q9BWU1); assay: Navigating the Kinome. Panel member name: CDC2L6; assay type: functional
HEK293 = assay: inhibitors of LMP1-driven NF-kB reporter, dose response, cell-based, HEK293, luciferase, cherry-pick (AID 588343); assay type: functional; settings: Homo sapiens
H9c2 = assay: cells; assay type: functional, cell-based; settings: Rattus norvegicus, H9c2, Myocardium
Melanocortin receptor 4 = Melanocortin receptor 4 (Homo sapiens, UniProt P32245); assay: MC4R antagonist potency on cAMP, dose response, cell-based, TR-FRET, biased antagonists (AID 602298); assay type: functional;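 note: antagonist potency against agonist-stimulated cAMP production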
Melanocortin receptor 4, sequence (P32245 whole entry): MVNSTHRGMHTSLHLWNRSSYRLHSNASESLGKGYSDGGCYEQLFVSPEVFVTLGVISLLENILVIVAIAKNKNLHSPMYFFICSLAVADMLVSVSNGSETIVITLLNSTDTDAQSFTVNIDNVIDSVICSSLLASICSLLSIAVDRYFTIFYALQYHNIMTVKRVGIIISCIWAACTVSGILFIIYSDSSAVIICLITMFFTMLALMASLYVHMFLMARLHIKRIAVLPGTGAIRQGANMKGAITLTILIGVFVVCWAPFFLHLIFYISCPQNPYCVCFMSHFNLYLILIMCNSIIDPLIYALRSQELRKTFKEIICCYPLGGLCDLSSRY

[14] = nonselective inhibitors of cellular cAMP signaling, dose response, counter-screen for MC4R biased antagonist project, cell-based, TR-FRET cAMP detection (AID 602305); assay type: functional;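 note: U2OS cells stimulated with forskolin near its EC80 as the cAMP inducer; potency is for inhibition of forskolin-stimulated cAMP signaling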
[15] = molecular target: T3, ATP-dependent translocase ABCB1 (Homo sapiens, UniProt P08183); assay: ABCG2 efflux pump inhibitor potency, dose response, Ig-MXP3 cells, JC-1, flow cytometry, set 2 (AID 504566); assay type: functional; settings: read-out: EC50_MICROM_;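 note: flow cytometry median green fluorescence of retained JC-1 dye; potency of efflux pump inhibition measured as rising substrate retention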
T3 sequence (P08183 whole entry): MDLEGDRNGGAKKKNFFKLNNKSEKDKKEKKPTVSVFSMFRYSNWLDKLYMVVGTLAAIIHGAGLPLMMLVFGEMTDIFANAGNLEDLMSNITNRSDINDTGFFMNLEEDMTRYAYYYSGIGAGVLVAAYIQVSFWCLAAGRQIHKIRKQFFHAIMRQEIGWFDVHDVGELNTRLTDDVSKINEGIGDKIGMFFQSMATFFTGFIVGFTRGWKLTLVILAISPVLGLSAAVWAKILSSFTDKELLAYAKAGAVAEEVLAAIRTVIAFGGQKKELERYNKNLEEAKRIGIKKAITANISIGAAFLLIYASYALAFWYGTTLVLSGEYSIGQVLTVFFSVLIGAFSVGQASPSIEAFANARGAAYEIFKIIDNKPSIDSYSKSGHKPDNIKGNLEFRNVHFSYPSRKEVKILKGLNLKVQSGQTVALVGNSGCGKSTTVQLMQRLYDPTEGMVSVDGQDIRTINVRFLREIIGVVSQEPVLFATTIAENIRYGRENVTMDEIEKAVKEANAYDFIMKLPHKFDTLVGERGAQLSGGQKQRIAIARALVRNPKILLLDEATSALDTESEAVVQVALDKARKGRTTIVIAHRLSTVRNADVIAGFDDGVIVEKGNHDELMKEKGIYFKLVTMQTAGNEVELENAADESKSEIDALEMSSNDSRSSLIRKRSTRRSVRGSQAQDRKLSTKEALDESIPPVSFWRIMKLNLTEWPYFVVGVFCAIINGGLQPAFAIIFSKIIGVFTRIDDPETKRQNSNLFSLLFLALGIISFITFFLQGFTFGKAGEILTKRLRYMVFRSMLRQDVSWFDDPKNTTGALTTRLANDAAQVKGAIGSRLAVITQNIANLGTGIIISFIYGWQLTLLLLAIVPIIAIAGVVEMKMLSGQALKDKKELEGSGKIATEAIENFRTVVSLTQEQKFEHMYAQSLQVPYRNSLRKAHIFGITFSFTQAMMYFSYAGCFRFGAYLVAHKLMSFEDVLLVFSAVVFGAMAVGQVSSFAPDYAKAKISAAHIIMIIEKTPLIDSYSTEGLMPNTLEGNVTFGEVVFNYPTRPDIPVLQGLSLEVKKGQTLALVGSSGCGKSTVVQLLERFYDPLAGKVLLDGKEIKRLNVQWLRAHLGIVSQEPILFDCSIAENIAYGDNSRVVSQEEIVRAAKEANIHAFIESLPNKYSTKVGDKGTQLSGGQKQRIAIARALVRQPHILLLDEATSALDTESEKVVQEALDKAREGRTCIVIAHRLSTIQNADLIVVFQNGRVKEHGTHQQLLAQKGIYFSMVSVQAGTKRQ

[16] = molecular target: T3, ATP-dependent translocase ABCB1; assay: ABCB1 efflux inhibitor potency, dose response, Jurkat-DNR cells, JC-1, flow cytometry, set 2 (AID 504569); assay type: functional; settings: read-out: EC50_MICROM_;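 note: potency of pump inhibitors that raise cellular JC-1 green fluorescence up to the nicardipine level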
Paired box protein Pax-8 = Paired box protein Pax-8 (Homo sapiens, UniProt Q06710); assay: inhibitors of PAX8-driven TPO luciferase reporter, dose response, RMG-I cells, cherry-pick (AID 687027); assay type: functional, cell-based;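 note: luciferase reporter driven by Pax8 target thyroperoxidase promoter measured by SteadyGlo luminescence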
Paired box protein Pax-8, sequence (Q06710 whole entry): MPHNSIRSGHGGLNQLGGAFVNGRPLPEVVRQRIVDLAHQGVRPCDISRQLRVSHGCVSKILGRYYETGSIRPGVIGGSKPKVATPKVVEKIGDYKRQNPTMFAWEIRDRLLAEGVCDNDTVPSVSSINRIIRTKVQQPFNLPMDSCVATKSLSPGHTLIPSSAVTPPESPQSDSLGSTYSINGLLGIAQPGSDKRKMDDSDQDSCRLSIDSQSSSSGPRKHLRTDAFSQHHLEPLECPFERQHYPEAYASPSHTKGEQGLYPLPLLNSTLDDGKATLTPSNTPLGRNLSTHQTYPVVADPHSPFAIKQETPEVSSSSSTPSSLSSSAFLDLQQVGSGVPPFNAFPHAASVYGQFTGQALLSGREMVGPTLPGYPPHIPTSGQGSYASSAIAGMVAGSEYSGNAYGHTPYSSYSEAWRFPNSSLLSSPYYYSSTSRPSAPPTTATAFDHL

[17] = non-specific cell cytotoxicity, dose response, cytotoxicity control for PAX8 inhibitor project, plate reader, dry powder samples (AID 743021); assay type: functional, cell-based
[18] = microbe, parasite or virus in culture; assay type: functional; settings: Mycobacterium tuberculosis
Vero = assay: cells; assay type: functional; settings: Chlorocebus sabaeus
[19] = molecular target: 26S proteasome non-ATPase regulatory subunit 14 (Homo sapiens, UniProt O00487); assay: inhibition of proteasome subunit RPN11 – biochemical, fluorescence polarization, uHTS hits, confirmation (AID 602368); assay type: functional
[20] = molecular target: 72 kDa type IV collagenase (Homo sapiens, UniProt P08253); assay: Dose Response validation of uHTS RPN11 inhibitor hits using a MMP-2 Fluorescence assay.; assay type: functional
Prothrombin = Prothrombin (Bos taurus, UniProt P00735); assay: thrombin inhibition, dose response, biochemical, fluorescence polarization, uHTS hits (AID 602369); assay type: functional
[21] = molecular target: T2, Glycogen synthase kinase-3 beta; assay: GSK3beta kinase inhibitors, dose response, biochemical, microfluidics, dry powder samples, set 2 (AID 623989); assay type: functional
[22] = molecular target: Cyclin-dependent kinase 5/CDK5 activator 1 (Homo sapiens, UniProt Q00535); assay: CDK5-p25 kinase inhibition, dose response, selectivity assay for GSK3beta inhibitor project, biochemical, microfluidic mobility shift, dry powder, set 2 (AID 623979); assay type: functional
Cyclin-dependent kinase 5/CDK5 activator 1, sequence (Q00535 whole entry): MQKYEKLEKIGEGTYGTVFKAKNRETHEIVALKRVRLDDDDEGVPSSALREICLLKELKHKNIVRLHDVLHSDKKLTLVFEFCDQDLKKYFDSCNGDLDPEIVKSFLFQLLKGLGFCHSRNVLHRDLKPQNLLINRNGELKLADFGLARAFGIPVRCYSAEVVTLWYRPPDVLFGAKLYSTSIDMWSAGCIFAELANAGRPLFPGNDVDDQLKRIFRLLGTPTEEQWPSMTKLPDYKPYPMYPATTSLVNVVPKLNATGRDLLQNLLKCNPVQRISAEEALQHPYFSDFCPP
Cyclin-dependent kinase 5/CDK5 activator 1, sequence (Q15078 whole entry, further chain): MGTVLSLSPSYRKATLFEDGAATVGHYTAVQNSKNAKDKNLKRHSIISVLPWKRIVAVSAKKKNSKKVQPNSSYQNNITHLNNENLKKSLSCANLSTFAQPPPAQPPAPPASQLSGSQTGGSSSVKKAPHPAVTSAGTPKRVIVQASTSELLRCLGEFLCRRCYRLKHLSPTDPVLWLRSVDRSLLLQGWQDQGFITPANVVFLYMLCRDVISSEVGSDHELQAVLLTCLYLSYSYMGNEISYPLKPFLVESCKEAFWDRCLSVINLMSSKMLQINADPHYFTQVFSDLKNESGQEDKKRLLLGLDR

[23] = THP-1 cell cytotoxicity, cytotoxicity control, set 4 (AID 504911); assay type: functional; settings: Mycobacterium tuberculosis
[24] = Vero cell cytotoxicity, dose response, cytotoxicity control for M. tuberculosis growth inhibitor project, Vero cells, purified and synthesized compounds, set 4 (AID 504854); assay type: functional; settings: Mycobacterium tuberculosis
[25] = molecular target: T4, DNA dC->dU-editing enzyme APOBEC-3A (Homo sapiens, UniProt P31941); assay: SAR analysis of small molecule inhibitors of APOBEC3A DNA Deaminase via a fluorescence-based single-stranded DNA deaminase assay - Set 2.; assay type: functional; settings: read-out: IC50_Mean
T4 sequence (P31941 whole entry): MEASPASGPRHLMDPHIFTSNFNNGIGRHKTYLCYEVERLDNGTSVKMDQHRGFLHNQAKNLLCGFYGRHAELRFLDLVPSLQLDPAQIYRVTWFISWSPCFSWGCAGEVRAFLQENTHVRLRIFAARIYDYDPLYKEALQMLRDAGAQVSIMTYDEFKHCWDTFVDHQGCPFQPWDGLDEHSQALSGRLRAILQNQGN

[26] = molecular target: T5, DNA dC->dU-editing enzyme APOBEC-3G (Homo sapiens, UniProt Q9HC16); assay: SAR analysis of small molecule inhibitors of APOBEC3G DNA Deaminase via a fluorescence-based single-stranded DNA deaminase assay - Set 2.; assay type: functional; settings: read-out: IC50_Mean
T5 sequence (Q9HC16 whole entry): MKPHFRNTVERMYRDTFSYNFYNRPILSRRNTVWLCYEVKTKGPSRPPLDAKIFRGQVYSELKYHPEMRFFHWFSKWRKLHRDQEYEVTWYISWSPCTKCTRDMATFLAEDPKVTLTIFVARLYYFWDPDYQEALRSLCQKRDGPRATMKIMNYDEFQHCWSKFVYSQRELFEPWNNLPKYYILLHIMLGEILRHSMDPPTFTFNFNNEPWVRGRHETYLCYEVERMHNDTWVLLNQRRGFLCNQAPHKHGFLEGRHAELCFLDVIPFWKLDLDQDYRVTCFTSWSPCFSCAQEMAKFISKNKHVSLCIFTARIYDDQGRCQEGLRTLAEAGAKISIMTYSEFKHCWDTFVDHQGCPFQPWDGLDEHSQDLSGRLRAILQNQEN

[27] = molecular target: T5, DNA dC->dU-editing enzyme APOBEC-3G; assay: APOBEC3G deaminase inhibitors, SAR follow-up, biochemical, fluorescence, single-stranded DNA substrate (AID 602136); assay type: functional; settings: read-out: IC50_Mean
[28] = molecular target: T4, DNA dC->dU-editing enzyme APOBEC-3A; assay: SAR analysis of small molecule inhibitors of APOBEC3A DNA Deaminase via a fluorescence-based single-stranded DNA deaminase assay.; assay type: functional; settings: read-out: IC50_Mean

## CC[C@]12c3[nH]c4cc(-c5ccco5)ccc4c3CCN1C(=O)[C@@H](CC(=O)NCc1ccc(OC)c(OC)c1)C[C@@H]2C(=O)N1CCN(C(=O)c2ccco2)CC1
[1]
  AC50: 4.25 µM (active)

## O=C1NC(=S)NC(=O)C1=Cc1ccc(-c2ccc(C(=O)O)c(O)c2)o1
Aurora kinase A
  Ki: 0.126 µM (active)
[2]
  Ki: > 5.01 µM (inactive)
Aurora kinase B
  Ki: 0.0398 µM (active)

## COc1ccc(Oc2c(Cl)cnn(C3=Nc4cc(Cl)ccc4Oc4ncccc43)c2=O)cc1
[3]
  IC50: 8.51 µM (active)

## COCCn1c(C)c(C)sc1=NC(=O)c1cc(SC)ccc1Cl
[4]
  Ki: 6.31 µM (active)
[5]
  Ki: 6.31 µM (active)
[6]
  Ki: 5.01 µM (active)

## N#CC(c1ccccc1F)c1c(Cl)cnn(Cc2cccc3ccccc23)c1=O (configuration not stated)
[7]
  IC50: 0.937 µM (active)
[8]
  IC50: 0.937 µM (active)

## CCc1cnn2c(NCc3ccc[n+]([O-])c3)cc(N3CCCCC3CCO)nc12 (configuration not stated)
Activin receptor type-1
  Ki: > 3.98 µM (inactive)
[9]
  Ki: 1.58 µM (active)
[10]
  Ki: > 3.16 µM (inactive)
[11]
  Ki: 1.26 µM (active)

## Cn1cc(Nc2ncc(Br)c(Nc3cccc(C(N)=O)c3)n2)cn1
[12]
  Ki: 3.16 µM (active)
[13]
  Ki: 6.31 µM (active)

## C#Cc1cc(N2CCN(C(=O)c3ccoc3)CC2)n2nc(-c3cccc(Cl)c3)cc2n1
HEK293
  AC50: 13.4 µM (active)
H9c2
  IC50: > 79 µM (inactive)
Melanocortin receptor 4
  IC50: > 64.6 µM (inactive)
[14]
  IC50: > 64.6 µM (inactive)
[15]
  EC50: 1.98 µM (active)
[16]
  EC50: 7.34 µM (active)
Paired box protein Pax-8
  AC50: 3.79 µM (active)
[17]
  AC50: 4.43 µM (active)

## COc1cc(/C=C/C(O)=C2\C(=O)NC(=O)N(CCc3ccccc3)C2=O)ccc1O
[18]
  CC50: 15.9 µM (active)
Vero
  CC50: 17.7 µM (active)
[19]
  IC50: 29.2 µM (active)
[20]
  IC50: > 100 µM (inactive)
Prothrombin
  IC50: 40.6 µM (active)

## O=C(Cc1cccc2ccccc12)Nc1cn(C2CCC2)cn1
[21]
  AC50: 8.41 µM (active)
[22]
  AC50: 0.137 µM (active)

## CC(C)NC(=O)CSc1nc2ccccc2c(=O)[nH]1
[23]
  CC50: > 100 µM (active)
[24]
  CC50: > 100 µM (active)

## O=C(NCc1ccc2c(c1)OCO2)c1nn2cccnc2c1Cl
[25]
  IC50: > 99 µM (inactive)
[26]
  IC50: 49.9 µM (inactive)
[27]
  IC50: > 99 µM (inactive)
[28]
  IC50: > 99 µM (inactive)
